Columns and labels:
Dct/Trp2 promoter [1] = test: Transient CAT assay, Dct/Trp2 proximal promoter-CAT construct in WM 266-4; format: cell-based, human; settings: CPP concentration 10 μM
Procedure: (§1) SOX10 and MITF interact with the proximal promoter of Dct/Trp2 gene and induces its activity (Ludwig A. et al., FEBS Lett. 556 (1-3):236-244 (2004)). Thus, a Dct/Trp2 proximal promoter reporter construct was used to analyze effect of mimicking peptides on promoter activity using transient CAT assay.
(§2) Methods. Human melanoma cell lines SK-MEL-28 and WM 266-4 were obtained from the American Tissue Culture Collection (ATCC) and were cultured according to recommendations of ATCC (DMEM, 10% FCS, penicillin+streptomycin). Dct/Trp2 proximal promoter-CAT construct (Ludwig et al., supra) was used in all experiments.
(§3) Cells were transfected by using FuGene reagent (Roche Molecular Biochemicals) according to manufacturer's instructions. Freeze-thaw lysates of cells collected 48 h after the transfection were assayed for CAT activity as described (Pothier, F. et al., DNA Cell Biol. 11(1):83-90 (1992)). At least two different DNA preparations were tested for each plasmid. To normalize the transfection efficiencies, cells were cotransfected with pON260 expressing β-galactosidase (Spaete, R. R. and Mocarski, E. S., J. Virol. 54(3):817-24 (1985); Spaete, R. R. and Mocarski, E. S., J. Virol. 56(1):13543 (1985)). All the CAT activities were normalized to total protein and β-galatosidase activity.
(§4) Following transfection, cells were grown in 6 well plates, each treatment in triplicates. Peptides were added to the media and media was changed every day during the 7 day experiment. CPP concentration was 10 μM.

Dct/Trp2 promoter [2] = test: Transient CAT assay, Dct/Trp2 proximal promoter-CAT construct in SK-MEL-28; format: cell-based, human; settings: CPP concentration 10 μM
Procedure: as §1, §2, §3, §4

B16 [3] = test: Cell counting after 7 day peptide treatment; format: cell-based, mouse; settings: CPP mimicking peptides, conc 10 µM, start count 10
Procedure: The ability to block interaction of MITF, SOX10 and STAT3 with active transcriptional complex and inhibit proliferation and stimulate apoptosis of melanoma cells were tested on human melanoma cell lines SK-MEL-28 and WM 266-4, and mouse melanoma cell line B16. Methods. Human melanoma cell lines SK-MEL-28 and WM 2664 and mouse melanoma cell line B16 were obtained from the American Tissue Culture Collection (ATCC). Cells were cultured according to recommendations of ATCC (DMEM, 10% FCS, penicillin+streptomycin) and used in experiments after two passages in the laboratory. Cells were grown in 24 well plates, each treatment in triplicates. Cells were plated 16 hours prior treatments started. Peptides were added to the media, and media was changed every day during 7 day experiment. […] Cells were precipitated and resuspended in 100 μl of PBS, and 5 μl were removed for counting

B16 [4] = test: Apoptosis, Annexin V-Cy3 Apoptosis Kit; format: cell-based, mouse; settings: CPP mimicking peptides, conc 10 µM
Procedure: (§5) Methods. Human melanoma cell lines SK-MEL-28 and WM 2664 and mouse melanoma cell line B16 were obtained from the American Tissue Culture Collection (ATCC). Cells were cultured according to recommendations of ATCC (DMEM, 10% FCS, penicillin+streptomycin) and used in experiments after two passages in the laboratory. Cells were grown in 24 well plates, each treatment in triplicates. Cells were plated 16 hours prior treatments started. Peptides were added to the media, and media was changed every day during 7 day experiment. CPP concentration was 10 μM Apoptosis was analyzed using Biovision Annexin V-Cy3 Apoptosis Kit according to manufacturers protocols.

Human keratinocytes [5] = test: Cell counting after 7 day peptide treatment; format: cell-based; settings: keratinocyte, modified peptides, conc 10 µM, start count 10
Procedure: (§6) Methods. Human melanoma cell lines SK-MEL-28 and WM 266-4 were obtained from the American Tissue Culture Collection (ATCC) and were cultured according to recommendations of ATCC (DMEM, 10% FCS, penicillin+streptomycin). Human keratinocytes were obtained from Clonetics and cultured according to manufacturers protocol. Cells were used in experiments after two passages in the laboratory. Cells were grown in 24 well plates, each treatment in triplicates. Cells were plated 16 hours prior treatments started. Peptides were added to the media, and media was changed every day during 7 day experiment. CPP concentration was 10 μM. For cell counting, cells were trypsinized (0.25% Trypsin, 2 mM EDTA) in Ca, Mg free PBS. Cells were precipitated and resuspended in 100 μl of PBS, and 5 μl were removed for counting.

Human keratinocytes [6] = test: Apoptosis, Annexin V-Cy3 Apoptosis Kit; format: cell-based; settings: keratinocyte, modified peptides, conc 10 µM
Human keratinocytes [7] = test: WST-1 test (mitochondrial activity); format: cell-based; settings: keratinocyte; modified peptides; conc 10 µM; untreated = 1
Procedure: as §6, with “[…] WST-1 test” for “CPP concentration”, “performed to measure mitochondrial activity, which can also be used as a measure of” for “10 μM. For”, “number.” for “counting, cells were trypsinized (0.25% Trypsin, 2 mM EDTA) in Ca, Mg free PBS. Cells were precipitated and resuspended in 100 μl of PBS, and 5 μl were removed for counting.”

B16 melanoma = test: Mouse tumor xenograft model, peptide membrane patch on skin melanoma; format: in vivo; settings: patch immersed in 100 μM peptide solution, start = 100
Procedure: The effect of modified mimicking peptides was analyzed by inducing melanomas in mouse skin by grafting suspension of melanoma cells. […] Tumor diameter was measured 1, 2, 3, 5, 7 days after treatmet started.
Methods. Mouse melanoma cell line B16 was cultured as described above, and approximately 5×10^6 cells were injected subcutaneously into the left and right limbs of three C57BL/6JOIaHsd mice.
Administration. Cellulose membrane was immersed in a solution of peptides (100 μM). Size of tumor was measured 1, 2, 3, 5 and 7 days following patch treatment. At the same time new patch was applied. All experiments were done in triplicates (3 animals per group).

B16 [8] = test: WST-1 test (mitochondrial activity); format: cell-based, mouse; settings: CPP mimicking peptides, conc 10 µM, untreated = 1
Procedure: as §5, with “CPP concentration was 10 μM Apoptosis was analyzed using Biovision Annexin V-Cy3 Apoptosis Kit according to manufacturers protocols.” left out

Sequence | Dct/Trp2 promoter activity (CAT assay) (Dct/Trp2 promoter [1]) | Dct/Trp2 promoter activity (CAT assay) (Dct/Trp2 promoter [2]) | Cell Count 7 d (B16 [3]) | Apoptosis 7 d/% (B16 [4]) | Cell Count 7 d (Human keratinocytes [5]) | Apoptosis 7 d/% (Human keratinocytes [6]) | WST-1 7 d (Human keratinocytes [7]) | tumor size change (%) 1 d (B16 melanoma; 1 d, B16 s.c. in C57BL/6 mice) | tumor size change (%) 2 d (B16 melanoma; 2 d) | tumor size change (%) 3 d (B16 melanoma; 3 d) | tumor size change (%) 5 d (B16 melanoma; 5 d) | tumor size change (%) 7 d (B16 melanoma; 7 d) | WST-1 7 d (B16 [8])
RPKKRKVRRRFNINDRIKELGTLIPKSNDPDMRWN [MITF-int1] | suppress Dct/Trp2 promoter activity significantly | suppress Dct/Trp2 promoter activity significantly | 63 | 16% | – | – | – | – | – | – | – | – | –
TTGGSSPQGLEAKRPKKRKVRRRFNINDRIKELGTLIPKSNDPDMRWN [MITF-int1M] | – | – | – | – | 38 | 5% | 0.93 | 112% | 135% | 150% | 170% | 210% | –
RPKKRKVRRRVKRPMNAFMVWAQAARRKLADQY [SOX10-int1] | suppress Dct/Trp2 promoter activity significantly | suppress Dct/Trp2 promoter activity significantly | 72 | 12% | – | – | – | – | – | – | – | – | 0.88

Source: patent US20060014712A1, “Controlled delivery of therapeutic compounds” (CeMines, Inc., priority 2004, published 2006)
